Source: patent US20140364331A1, “RECURRENT GENE FUSIONS IN PROSTATE CANCER” (THE REGENTS OF THE UNIVERSITY OF MICHIGAN, priority 2009, published 2014)

Test system: UBE2L3-KRAS fusion protein
Test: Western blotting of UBE2L3-KRAS fusion protein in cells treated with bortezomib
Type: cell-based, human
Method: The prostate cancer cell lines DU145 were transfected with siRNA duplex (Dharmacon, Lafayette, Colo., USA) against UBE2L3 (5′-CCACCGAAGATCACATTTA-3′; SEQ ID NO:1), KRAS (5′-GAAGTTATGGAATTCCTTT-3′; SEQ ID NO:2) or the fusion junction (5′-CCGACCAAGGCCTGCTGAA-3′; SEQ ID NO:3) by oligofectamine (Invitrogen). DU145 transfected with non-targeting siRNA and RWPE cells was used as negative control. Post 48 hours transfection, cells were homogenized in NP40 lysis buffer (50 mM Tris-HCl, 1% NP40, pH 7.4, Sigma, St. Louis, Mo.), and complete proteinase inhibitor mixture (Roche, Indianapolis, Ind.). Ten micrograms of each protein extract were boiled in sample buffer, separated by SDS-PAGE, and transferred onto Polyvinylidene Difluoride membrane (GE Healthcare, Piscataway, N.J.). The membrane was incubated for one hour in blocking buffer [Tris-buffered saline, 0.1% Tween (TBS-T), 5% nonfat dry milk] and incubated overnight at 4° C. with the following antibodies: anti-RAS mouse monoclonal (1:1000 in blocking buffer, Millipore Cat #: 05-516), anti-KRAS rabbit polyclonal (1:1000, Proteintech Group Inc., Cat #: 12063-1-AP) and anti-beta Actin mouse monoclonal (1:5000, Sigma Cat #: A5441) antibodies. Following three washes with TBS-T, the blot was incubated with horseradish peroxidase-conjugated secondary antibody and the signals visualized by enhanced chemiluminescence system as described by the manufacturer (GE Healthcare). To test fusion protein expression in multiple prostate derived cell lines, lysates from DU145, PrEC, RWPE, 22RV1, VCaP, PC3 either untreated or treated with 500 nM bortezomib for 12 hours were used. Bortezomib treated HEK cells over-expressing UBE2L3-KRAS fusion protein was used as a positive control. […] For ERK activation analysis NIH 3T3 cells were starved for 12 hours before immunoblot analysis using phospho erk1/2 antibody. All antibodies for the MAPK signaling proteins were purchased from Cell Signaling Technologies.

CC(C)C[C@H](NC(=O)[C@H](Cc1ccccc1)NC(=O)c1cnccn1)B(O)O [bortezomib]
levels of UBE2L3-KRAS protein expression (Western blot) (DU145 cells, 500 nM bortezomib for 12 hours): enhanced the levels of UBE2L3-KRAS protein expression
expression of the UBE2L3-KRAS fusion protein (Western blot) (HEK293 cells over-expressing UBE2L3-KRAS construct, 500 nM bortezomib for 12 hours): expression of the fusion protein was clearly apparent
expression of the UBE2L3-KRAS fusion protein (Western blot) (RWPE prostate epithelial cells overexpressing UBE2L3-KRAS): proteosomal inhibition with bortezomib was required
